Test results published in patent US8551541B2, “Disinfectant making air fresh and preparation and method and use thereof” (priority 2009, dated 2013).

Tested on: influenza A virus FM1 strain
Format: cell-based

SMILES: NC(=O)c1ncn([C@@H]2O[C@H](CO)[C@@H](O)[C@H]2O)n1 [Ribavirin]
- inhibitory effect on FM1 (in words): markedly inhibitory effect
